The source of these data is patent publication US9204653B2, “5-fluoro pyrimidine derivatives” (DOW AGROSCIENCES LLC, priority 2008, dated 2015).

Like-named read-outs stand apart in the source and are kept apart here.

In the assay the test system is Mycosphaerella graminicola; Anamorph: Septoria tritici; Bayer Code SEPTTR. Nature of the assay: Leaf blotch of wheat, foliar fungicide treatment, one day protectant (1DP) or three day curative (3DC). The class given is in vivo, Septoria tritici on wheat plants (variety Yuma). The following applies: Zymoseptoria tritici, percent control rating; for pest or weed control at 100 ppm: read-out: SEPTTR 3DC 100 ppm.

The mark [1] stands for this setting: 24 h, one day protectant (1DP), 25 ppm (first 1DP column), read-out: SETTTR 1DP 25 ppm.
Where [2] appears, read: 24 h, one day protectant (1DP), 25 ppm as printed (second 1DP column), read-out: SETTTR 1DP 25 ppm.
[3] abbreviates: 72 h, three day curative (3DC), 25 ppm, read-out: SEPTTR 3DC 25 ppm.

For `CNN(C)c1nc(OC)ncc1F` [Compound 1056], the pest or weed control at 25 ppm runs as follows: under setting [1], 0 to 25%; under setting [2], 0 to 25%; under setting [3], 26 to 50%. Also, under “72 h, three day curative (3DC)”, the pest or weed control at 100 ppm lay within 26 to 50%.
Turning to `CONc1nc(OC)ncc1F` [Compound 1058], the pest or weed control at 25 ppm under setting [1] fell in the range of 0 to 25%, the pest or weed control at 25 ppm under setting [2] fell in the range of 0 to 25% and the pest or weed control at 25 ppm under setting [3] lay within 0 to 25%. Also, the pest or weed control at 100 ppm (72 h, three day curative (3DC)) lay in the range of 0 to 25%.
For the compound `C=CCOc1ncc(F)c(NN)n1` [Compound 1059], the pest or weed control at 25 ppm fell in the range of 0 to 25% under setting [1], 0 to 25% under setting [2] and 0 to 25% under setting [3]. In addition, the pest or weed control at 100 ppm (72 h, three day curative (3DC)) is 26 to 50%.
Consider `C=CCOc1ncc(F)c(N/N=C(\C)c2ccc(F)cc2)n1` [Compound 1060], for which the pest or weed control at 25 ppm lay in the range of 0 to 25% under setting [1], 0 to 25% under setting [2] and 0 to 25% under setting [3]. For the same compound, the pest or weed control at 100 ppm (72 h, three day curative (3DC)) is 0 to 25%.
Take `C=CCOc1ncc(F)c(N/N=C(\C)c2ccc(Cl)s2)n1` [Compound 1061]: the pest or weed control at 25 ppm by setting is: under setting [1], 26 to 50%; under setting [2], 0 to 25%; under setting [3], 0 to 25%. For the same compound, the pest or weed control at 100 ppm (72 h, three day curative (3DC)) is 0 to 25%.
On to `C=CCOc1ncc(F)c(N/N=C/C2CC2)n1` [Compound 1062], for which the pest or weed control at 25 ppm under setting [1] fell in the range of 0 to 25%, the pest or weed control at 25 ppm under setting [2] was 0 to 25% and the pest or weed control at 25 ppm under setting [3] was in the range of 0 to 25%. Besides, the pest or weed control at 100 ppm (72 h, three day curative (3DC)) fell in the range of 0 to 25%.
As to `C=CCOc1ncc(F)c(N/N=C/C(C)=C/C)n1` [Compound 1063], the pest or weed control at 25 ppm runs as follows: under setting [1], 0 to 25%; under setting [2], 0 to 25%; under setting [3], 0 to 25%. In addition, the pest or weed control at 100 ppm (72 h, three day curative (3DC)) lay within 0 to 25%.
On to `C=CCOc1ncc(F)c(N/N=C/c2ccco2)n1` [Compound 1064], for which the pest or weed control at 25 ppm is, setting by setting: under setting [1], 0 to 25%; under setting [2], 0 to 25%; under setting [3], 0 to 25%. Where the note is “72 h, three day curative (3DC)”, the pest or weed control at 100 ppm was 0 to 25%.
On to `COc1ncc(F)c(N(C)O)n1` [Compound 1066], for which the pest or weed control at 25 ppm is 0 to 25% under setting [1], 0 to 25% under setting [2] and 0 to 25% under setting [3]. For the same compound, the pest or weed control at 100 ppm (72 h, three day curative (3DC)) is 0 to 25%.
With `COc1ncc(F)c(N(O)C(C)C)n1` [Compound 1067], the pest or weed control at 25 ppm fell in the range of 0 to 25% under setting [1], 0 to 25% under setting [2] and 0 to 25% under setting [3]. For the setting “72 h, three day curative (3DC)”, the pest or weed control at 100 ppm was in the range of 0 to 25%.
Regarding `CN(Cc1ccc(Cl)cc1)c1nc(O)ncc1F` [Compound 1068], the pest or weed control at 25 ppm under setting [1] lay within 0 to 25%, the pest or weed control at 25 ppm under setting [2] fell in the range of 0 to 25% and the pest or weed control at 25 ppm under setting [3] was 0 to 25%. Also, the pest or weed control at 100 ppm (72 h, three day curative (3DC)) lay within 0 to 25%.
With `Cc1ccc(CN(C)c2nc(O)ncc2F)cc1` [Compound 1069], the pest or weed control at 25 ppm fell in the range of 0 to 25% under setting [1], 0 to 25% under setting [2] and 51 to 75% under setting [3]. For the same compound, the pest or weed control at 100 ppm (72 h, three day curative (3DC)) was in the range of 51 to 75%.
As for `COc1ccccc1CN(C)c1nc(O)ncc1F` [Compound 1070], the pest or weed control at 25 ppm runs as follows: under setting [1], 26 to 50%; under setting [2], 0 to 25%; under setting [3], 0 to 25%. For the setting “72 h, three day curative (3DC)”, the pest or weed control at 100 ppm was 0 to 25%.
Consider `CN(Cc1ccc(C(F)(F)F)cc1)c1nc(O)ncc1F` [Compound 1071], for which the pest or weed control at 25 ppm is 0 to 25% under setting [1], 26 to 50% under setting [2] and 26 to 50% under setting [3]. Moreover, the pest or weed control at 100 ppm (72 h, three day curative (3DC)) was in the range of 26 to 50%.
With `C=CCOc1ncc(F)c(NOCC)n1` [Compound 1072], the pest or weed control at 25 ppm reads like this: under setting [1], 0 to 25%; under setting [2], 0 to 25%; under setting [3], 0 to 25%. Besides, the pest or weed control at 100 ppm (72 h, three day curative (3DC)) was 0 to 25%.
Consider `COc1ncc(F)c(NOCc2ccc([N+](=O)[O-])cc2)n1` [Compound 1073], for which the pest or weed control at 25 ppm was 26 to 50% under setting [1], 0 to 25% under setting [2] and 0 to 25% under setting [3]. Besides, the pest or weed control at 100 ppm (72 h, three day curative (3DC)) fell in the range of 0 to 25%.
Turning to `C=CCOc1ncc(F)c(NNc2cc(C)ccc2C)n1` [Compound 1074], the pest or weed control at 25 ppm under setting [1] is 0 to 25%, the pest or weed control at 25 ppm under setting [2] was in the range of 0 to 25% and the pest or weed control at 25 ppm under setting [3] was in the range of 0 to 25%. Besides, the pest or weed control at 100 ppm (72 h, three day curative (3DC)) was in the range of 26 to 50%.
As for `C=CCOc1ncc(F)c(NO[Si](C)(C)C(C)(C)C)n1` [Compound 1075], the pest or weed control at 25 ppm under setting [1] is 0 to 25%, the pest or weed control at 25 ppm under setting [2] fell in the range of 0 to 25% and the pest or weed control at 25 ppm under setting [3] is 0 to 25%. Further, for the setting “72 h, three day curative (3DC)”, the pest or weed control at 100 ppm was 0 to 25%.
For `COc1ccc(CONc2nc(OC)ncc2F)cc1` [Compound 1076], the pest or weed control at 25 ppm is 0 to 25% under setting [1], 0 to 25% under setting [2] and 0 to 25% under setting [3]. Besides, the pest or weed control at 100 ppm (72 h, three day curative (3DC)) was 26 to 50%.
`C=CCOc1ncc(F)c(NNc2ccccc2F)n1` [Compound 1077]: the pest or weed control at 25 ppm lay within 0 to 25% under setting [1], 0 to 25% under setting [2] and 0 to 25% under setting [3]. For the same compound, the pest or weed control at 100 ppm (72 h, three day curative (3DC)) was 26 to 50%.
`C=CCOc1ncc(F)c(NNc2ccc(Br)cc2)n1` [Compound 1078]: the pest or weed control at 25 ppm is, setting by setting: under setting [1], 0 to 25%; under setting [2], 0 to 25%; under setting [3], 26 to 50%. Besides, the pest or weed control at 100 ppm (72 h, three day curative (3DC)) lay within 0 to 25%.
In the case of `COc1ncc(F)c(NO[Si](C)(C)C(C)(C)C)n1` [Compound 1079], the pest or weed control at 25 ppm runs as follows: under setting [1], 0 to 25%; under setting [2], 0 to 25%; under setting [3], 0 to 25%. Where the note is “72 h, three day curative (3DC)”, the pest or weed control at 100 ppm lay within 0 to 25%.
For the compound `COc1ncc(F)c(N(O)Cc2ccccc2)n1` [Compound 1080], the pest or weed control at 25 ppm is, setting by setting: under setting [1], 0 to 25%; under setting [2], 0 to 25%; under setting [3], 26 to 50%. For the same compound, where the note is “72 h, three day curative (3DC)”, the pest or weed control at 100 ppm lay within 26 to 50%.
Regarding `COc1ncc(F)c(NOCCOc2ccccc2)n1` [Compound 1081], the pest or weed control at 25 ppm under setting [1] is 0 to 25%, the pest or weed control at 25 ppm under setting [2] lay within 0 to 25% and the pest or weed control at 25 ppm under setting [3] fell in the range of 0 to 25%. The pest or weed control at 100 ppm (72 h, three day curative (3DC)) lay within 0 to 25%.
With `Oc1ncc(F)c(NCOCc2ccccc2)n1` [Compound 1082], the pest or weed control at 25 ppm was in the range of 0 to 25% under setting [1], 0 to 25% under setting [2] and 0 to 25% under setting [3]. The pest or weed control at 100 ppm (72 h, three day curative (3DC)) fell in the range of 0 to 25%.
In the case of `CC(=O)OCOc1ncc(F)c(/N=C/N(C)C)n1` [Compound 1083], the pest or weed control at 25 ppm under setting [1] fell in the range of 76 to 100%, the pest or weed control at 25 ppm under setting [2] lay within 76 to 100% and the pest or weed control at 25 ppm under setting [3] fell in the range of 76 to 100%. Also, the pest or weed control at 100 ppm (72 h, three day curative (3DC)) fell in the range of 76 to 100%.
Consider `CN(C)/C=N/c1nc(OCOC(=O)C2CCCC2)ncc1F` [Compound 1084], for which the pest or weed control at 25 ppm fell in the range of 76 to 100% under setting [1], 76 to 100% under setting [2] and 76 to 100% under setting [3]. The pest or weed control at 100 ppm (72 h, three day curative (3DC)) lay within 76 to 100%.
On to `CN(C)/C=N/c1nc(OCOC(=O)c2ccccc2)ncc1F` [Compound 1085], for which the pest or weed control at 25 ppm runs as follows: under setting [1], 76 to 100%; under setting [2], 76 to 100%; under setting [3], 76 to 100%. The pest or weed control at 100 ppm (72 h, three day curative (3DC)) fell in the range of 76 to 100%.
